Source: patent publication US10603273B2, “Membrane-adherent self-assembled systems for treatment of ocular disorders” (Integral Biosystems LLC, priority 2014, dated 2020)
Values after ≈ are worked out from the molar mass of the structure shown. Read-outs that look alike come from different tables or passages of the source.

What was measured:
[1] = Solubility of API in Phase I excipient mixtures; format: physicochemical
Method: Solubility of APIs were examined in different Phase I mixtures.
Initially, the solubility of fluticasone propionate was determined in 10 g of Phase I composed of a 7:3 (w/w) mixture of PHOSAL™ Medium Chain Triglycerides (“MCT”) and polyethylene glycol-400 (PEG-400). MCT, a mixture of phosphatidylcholine and medium chain triglycerides, is the hydrophobic component and PEG-400 is the hydrophilic component in this exemplary Phase I. MCT and PEG-400 were added into a glass vial and the mixture was vortexed for 2 min until the components formed a homogeneous mixture. Fluticasone propionate was added in an incremental manner and stirred at 850 rpm using a Scilogex MSH 280 Pro hot stir plate at a temperature of 37° C. Stirring was continued until saturation solubility was reached.
In order to increase the solubility of the fluticasone propionate in Phase I, mineral oil (Drakeol 600LT) was added into the composition. A Phase I containing MCT: PEG-400: mineral oil weight ratio of 7:2:1 was prepared as described above. The total amount of Phase I was 10 g. Fluticasone propionate was added in an incremental manner and the mixture was stirred for 5 min. and vortexed for 5 min after each addition of fluticasone propionate into the mixture. In this Phase I, 98.2 mg of fluticasone propionate dissolved completely in 37 min.
Another Phase I mixture containing PEG-400, polypropylene glycol (PPG), and cremophor in a weight ratio 2.9:7:0.1 was also evaluated. Cremophor was used because it is widely used as a co-solvent to enhance the solubility of poorly soluble drugs.
In this Phase I, 200.30 mg of fluticasone propionate was completely dissolved in 10 g when stirred at 1200 rpm for 2 min at 45° C.
Another Phase I mixture was produced containing 30% w/w PEG-400, 60% w/w PPG, 5% w/w MCT, 0.25% w/w cetyl alcohol, and 4.75% w/w ethanol. In 10 g of this Phase I, 180 mg fluticasone propionate dissolved completely after stirring at 1280 rpm for 15 min at 45° C.
Triamcinolone acetonide is a […] anti-inflammatory drug having low aqueous solubility.
A Phase I containing 30% w/w PEG-400, 20% w/w PPG, 0.5% w/w cetyl alcohol, 9.5% w/w ethanol, 5% w/w MCT and 35% w/w Castor oil was produced. Triamcinolone acetonide was added incrementally and the mixture stirred at 840 rpm using a Scilogex MSH 280 Pro set to 45° C.

[2] = Particle size distribution (Horiba particle size analyzer); format: physicochemical; conditions: nanodispersion of the named drug, drug delivery platform of Example 1
Method: Particle sizing was carried out by adding approximately 20 μL of the Phase III dispersion in a solution of 2% w/w glycerin, 0.1% w/w sodium pyrophosphate decahydrate. Particle size distribution of the Phase III nano-dispersions were measured using a Horiba LA-950V2 particle size analyzer at room temperature, i.e., 22-25° C.

[3] = Solubility of fluticasone propionate in nanostructured dispersions and single excipients; format: physicochemical; conditions: for solubility: oil or lipid
Method: Phase I was prepared containing PEG-400 at 20%, PPG at 10%, cetyl alcohol at 10%, MCT at 1%, PEG-stearate at 7%, poloxamer 407 at 2.22%, tyloxapol at 1%, polysorbate 80 at 1%, castor oil at 38%, and fluticasone propionate at 1-2%.
The composition of Phase II was sodium phosphate monobasic (0.017%), sodium phosphate dibasic (0.052%), sodium hyaluronate (0.15%), and dH2O (99.78%).
Phase I was mixed with Phase II at a weight ratio of 1:9.
The concentration of fluticasone propionate achievable in this formulation was 0.1-0.2%.
The solubility of fluticasone propionate in cetyl alcohol was 0.3 mg/ml. As just described, the final dispersion has a fluticasone propionate concentration of 1-2 mg/ml (0.1-0.2%).
In this example, cholesterol was added to obtain a higher concentration of hydrophobic excipients. The composition of Phase I was PEG-400 (20%), PPG (10%), cetyl alcohol (10%), cholesterol (2%), MCT (10%), PEG-stearate (5%), poloxamer 407 (2.22%), tyloxapol (1%), polysorbate 80 (1%), castor oil (36.9%), and fluticasone propionate (1-5%).
The final concentration of fluticasone propionate achievable in this formulation is 0.1-0.5% The maximum amount of fluticasone propionate expected to be solubilized by adding up the amount solubilized in each separate excipient is 0.06%.

[4] = In-vitro drug release, dialysis device, 1% HP-β-CD phosphate buffer pH 7.4, 37° C.; format: in vitro ADME; conditions: 0.1% nanostructured dispersion; released over 3 hours
Method: In-vitro drug release was determined at 37° C., pH 7.4 as follows: The Phase III dispersion (1 g) was transferred into a Spectra/Pore Float-A-Lyzer G2 dialysis device, which was then placed into a 50 mL locking centrifuge tube containing 40 g of 1% hydroxylpropyl-β-cyclodextrin (HP-β-CD) in phosphate buffer at pH 7.4, 37° C. The entire assembly was loaded onto a Robbins Scientific Model 400 rotating incubator. At each time point, 1 mL of sample was retrieved and fresh buffer added to replace the volume removed. Samples were measured for drug content using HPLC at λmax=239 nm.

[5] = Encapsulation efficiency (centrifugation, HPLC); format: physicochemical; conditions: 0.1% nanostructured dispersion (Phase III); mg drug per g dispersion
Method: Encapsulation efficiency (mg/G) was measured by placing 1.0 g of drug-containing Phase III into a 1.5 mL centrifuge tube and centrifuging it at 6000 rpm for 10 minutes using an Eppendorf Centrifuge 5145D at room temperature. 100 μL of the centrifugate was transferred to an HPLC vial containing 900 μL of 75% acetonitrile/25% water. The samples were measured for concentration of drug, e.g., dexamethasone, by HPLC at λmax=239 nm. The concentration was calculated as mg drug per g of the Phase III dispersion.

freshly excised cornea = assay: Ex-vivo corneal permeability, Franz-Cell diffusion chamber; format: in vitro ADME, calf; conditions: % of applied drug in 22 hours, 37° C.
Source text: Ex-vivo corneal permeability testing is a useful tool to screen formulations for their ability to penetrate ocular tissues. Using freshly excised cornea, formulations can be tested for their ability to diffuse across the cornea membrane. The ability to diffuse through biological membranes is directly related to the formulation excipients, its physical state (e.g., suspension, solution, emulsion, dispersion) and its partition coefficient (P) and log P. Fresh calf eyes were obtained from a nearby slaughterhouse and the corneas carefully excised using sterile technique. The corneas must be freshly excised and used within 1-2 hours. The corneas were excised in a sterilized laminar flow hood, in a Class 100 environment. The excisions were performed by first draining the aqueous humor followed by carefully cutting out the cornea using a scalpel for the initial incision; forceps and scissors were used to cut the remaining tissue. […] The volume was recorded, and the remaining cells filled. […] Samples were added in rapid succession by depositing 200 μL of the formulation into each donor chamber using a calibrated pipet and the times recorded. […] The samples were analyzed for API content by HPLC as described above. […] Flux can be calculated by the formula: J=Q/(A·t), where Q is the quantity of compound traversing the membrane in time t, and A is the area of exposed membrane in cm^2. […]

Compound: CCC(=O)O[C@]1(C(=O)SCF)[C@H](C)C[C@H]2[C@@H]3C[C@H](F)C4=CC(=O)C=C[C@]4(C)[C@@]3(F)[C@@H](O)C[C@@]21C [fluticasone propionate]
- amount completely dissolved in Phase I ([1]; in 10 g of 5% cetyl alcohol in ethanol, 1200 rpm, 2 min, 45° C.): 200.30 mg
- amount dissolved completely in Phase I ([1]; in 10 g of Phase I, MCT:PEG-400:mineral oil 7:2:1, dissolved in 37 min): 98.2 mg
- amount dissolved in Phase I ([1]; in 10 g of Phase I: 30% PEG-400, 60% PPG, 5% MCT, 0.25% cetyl alcohol, 4.75% ethanol, 1280 rpm, 45° C.): 180 mg
- D50 [2]: 0.141 μm
- D90 [2]: 0.181 μm
- maximum concentration expected from adding the solubilized contribution of each excipient ([3]; Example 8 excipients): 0.05%
- fluticasone propionate concentration of final dispersion ([3]; Example 8 final dispersion): 1 to 2 mg/mL
- concentration of fluticasone propionate achievable in formulation ([3]; Example 8 formulation, Phase I:Phase II 1:9, by weight): 0.1-0.2%
- maximum amount expected to be solubilized by adding up the amount solubilized in each separate excipient ([3]; Example 9 excipients): 0.06%
- final concentration of fluticasone propionate achievable in formulation ([3]; Example 9 formulation with cholesterol, Phase I:Phase II 1:9): 0.1-0.5%
- solubility ([3]; PHOSAL MCT alone, read-out: solubility in MCT): 150 µg/mL (≈ 300 µM)
- solubility ([3]; cetyl alcohol alone, read-out: solubility in cetyl alcohol): 300 µg/mL (≈ 599 µM)

Compound: CC1(C)O[C@@H]2C[C@H]3[C@@H]4CCC5=CC(=O)C=C[C@]5(C)[C@@]4(F)[C@@H](O)C[C@]3(C)[C@]2(C(=O)CO)O1 [triamcinolone acetonide]
- saturation solubility in Phase I ([1]; in 10 g of Phase I: 30% PEG-400, 20% PPG, 0.5% cetyl alcohol, 9.5% ethanol, 5% MCT, 35% castor oil, 840 rpm, 45° C.): 230 mg

Compound: C[C@@H]1C[C@H]2[C@@H]3CCC4=CC(=O)C=C[C@]4(C)[C@@]3(F)[C@@H](O)C[C@]2(C)[C@@]1(O)C(=O)CO [dexamethasone]
- in vitro drug release [4]: at least 25%

Compound: CCOC(=O)O[C@]1(C(=O)OCCl)CC[C@H]2[C@@H]3CCC4=CC(=O)C=C[C@]4(C)[C@H]3[C@@H](O)C[C@@]21C [loteprednol etabonate]
- in vitro drug release [4]: 35%
- amount of drug encapsulated [5]: 1.24 mg/G
- corneal permeability, drug released into the receptor solution (freshly excised cornea): 36%
